The test system of the assay is Human monocyte cell line THP-1. Kind of assay: Detection of THP-1 cell pyroptosis (Caspase-Glo 1 Inflammasome Assay). The assay is classed as cell-based. Particulars: 20 nM PMA 48 h, 1 μg/mL LPS, compound 3 h. How it is done: Human monocyte cell line THP-1 (ATCC® TB-202TM) was cultured in RPMI-1640 culture medium containing […], 1 mM pyruvic acid, 0.05 mM β-mercaptoethanol and 10% double antibody under the culture conditions of 37° C. and […].
Cell counting was performed, THP-1 cells were seeded into a 96-well plate at 50000 per well, and 20 nM PMA was added for inducing at 37° C./5% CO2 for 48 h. The culture medium was then discarded, and 100 μL of serum-free RPMI-1640 medium containing 1 μg/mL LPS was added. 5 μL of compound or solvent control was added and 3-fold diluted in gradient from a maximum concentration of 10 μM, and 10 gradient concentrations were set. The mixtures were incubated at 37° C./5% CO2 for 3 h. After the incubation, the mixtures were centrifuged at 300 g for 5 min, and the culture medium was discarded. Pyroptosis assay was performed according to specific steps described in instructions of Caspase-Glo® 1 Inflammasome Assay kit. IC50 was calculated using GraphPad Prism7.0 software.

Setting [1] is: Homo sapiens, THP-1, THP-1 pyroptosis.

Molecules are shown by their SMILES.

As to `CC(C)(O)c1coc(S(=N)(=O)NC(=O)Nc2c(CC3CCC3)ccc3c2CC3)c1` (single isomer, unassigned) [Compound 34-1, RS- and SS-N-((3-(cyclobutylmethyl)bicyclo[4.2.0]octa-1(6),2,4-trien-2-yl)carbamoyl)-4-(2-hydroxypropan-2-yl)furan-2-sulfonimidamide], the IC50 (THP-1 pyroptosis) lay in the range of 5000 to 10000 nM.

Compound `CC(C)(O)c1coc(S(=N)(=O)NC(=O)Nc2c(CC3CCC3)ccc3c2CC3)c1` (single isomer, unassigned) [Compound 34-2, RS- and SS-N-((3-(cyclobutylmethyl)bicyclo[4.2.0]octa-1(6),2,4-trien-2-yl)carbamoyl)-4-(2-hydroxypropan-2-yl)furan-2-sulfonimidamide] gave an IC50 (THP-1 pyroptosis) of at most 100 nM.

Regarding `CC(C)c1cccc(CC2CCC2)c1NC(=O)NS(=N)(=O)c1cc(C(C)(C)O)co1` (single isomer, unassigned) [Compound 70-1, RS- and SS-N-((2-(cyclobutylmethyl)-6-isopropylphenyl)carbamoyl)-4-(2-hydroxypropan-2-yl)furan-2-sulfonimidamide], for the setting “THP-1 pyroptosis”, the half-inhibitory concentration (IC50) was at most 100 nM.

`CC(C)c1cccc(CC2CCC2)c1NC(=O)NS(=N)(=O)c1cc(C(C)(C)O)co1` (single isomer, unassigned) [Compound 70-2, RS- and SS-N-((2-(cyclobutylmethyl)-6-isopropylphenyl)carbamoyl)-4-(2-hydroxypropan-2-yl)furan-2-sulfonimidamide] registered a concentration for half-maximal inhibition (IC50) (THP-1 pyroptosis) of 1000 to 5000 nM.

In turn, `CC(c1ccc2c(c1NC(=O)NS(=O)(=O)c1cc(C(C)(C)O)co1)CCC2)C1CC1` (stereo not drawn) [Compound 1, N-((5-(1-cyclopropylethyl)-2,3-dihydro-1H-inden-4-yl)carbamoyl)-4-(2-hydroxypropan-2-yl)furan-2-sulfonamide] registered an IC50 under setting [1] of 100 to 500 nM.

`CC(C)(O)c1coc(S(=O)(=O)NC(=O)Nc2c(CC3CC3)ccc3c2CCC3)c1` [Compound 3, N-((5-(cyclopropylmethyl)-2,3-dihydro-1H-inden-4-yl)carbamoyl)-4-(2-hydroxypropan-2-yl)furan-2-sulfonamide] displayed an IC50 under setting [1] of 100 to 500 nM.

On to `COc1cc(-c2cc(F)cc(C(C)C3CC3)c2NC(=O)NS(=O)(=O)c2cc(C(C)(C)O)co2)ccn1` (stereo not drawn) [Compound 4, N-((2-(1-cyclopropylethyl)-4-fluoro-6-(2-methoxypyridin-4-yl)phenyl)carbamoyl)-4-(2-hydroxypropan-2-yl)furan-2-sulfonamide], for which the 50% inhibitory concentration (IC50) under setting [1] was 100 to 500 nM.

On to `C[C@@H](c1ccc2c(c1NC(=O)NS(=O)(=O)c1cc(C(C)(C)O)co1)CCC2)C1CC1` [Compound 5, (R)-N-((5-(1-cyclopropylethyl)-2,3-dihydro-1H-inden-4-yl)carbamoyl)-4-(2-hydroxypropan-2-yl)furan-2-sulfonamide], for which the IC50 under setting [1] was at most 100 nM.

For the compound `CC(c1ccc2c(c1NC(=O)NS(=O)(=O)c1cc(C(C)(C)O)co1)CCC2)C1CCC1` (stereo not drawn) [Compound 15, N-((5-(1-cyclobutylethyl)-2,3-dihydro-1H-inden-4-yl)carbamoyl)-4-(2-hydroxypropan-2-yl)furan-2-sulfonamide], the half-inhibitory concentration (IC50) under setting [1] lay within 100 to 500 nM.

In turn, `CC(c1ccc2c(c1NC(=O)NS(=N)(=O)c1cc(C(C)(C)O)co1)CCC2)C1CCC1` (stereo not drawn) [Compound 16, N-((5-(1-cyclobutylethyl)-2,3-dihydro-1H-inden-4-yl)carbamoyl)-4-(2-hydroxypropan-2-yl)furan-2-sulfonimidamide] yielded an IC50 under setting [1] of at most 100 nM.

In turn, `CC(C)(O)c1coc(S(=O)(=O)NC(=O)Nc2c(CC3CCC3)ccc3c2CCC3)c1` [Compound 17, N-((5-(cyclobutylmethyl)-2,3-dihydro-1H-inden-4-yl)carbamoyl)-4-(2-hydroxypropan-2-yl)furan-2-sulfonamide] registered a half-maximal inhibitory concentration (IC50) under setting [1] of 100 to 500 nM.

Compound `Cc1oc(S(=O)(=O)NC(=O)Nc2c([C@H](C)C3CC3)ccc3c2CCC3)cc1C(C)(C)O` [Compound 22, (R)-N-((5-(1-cyclopropylethyl)-2,3-dihydro-1H-inden-4-yl)carbamoyl)-4-(2-hydroxypropan-2-yl)-5-methylfuran-2-sulfonamide] came in with a half-inhibitory concentration (IC50) under setting [1] of at most 100 nM.

For the compound `C[C@@H](c1ccc2c(c1NC(=O)NS(=O)(=O)c1cc(C(C)(C)O)co1)CCC2)C1CCCC1` [Compound 26, (R)-N-((5-(1-cyclopentylethyl)-2,3-dihydro-1H-inden-4-yl)carbamoyl)-4-(2-hydroxypropan-2-yl)furan-2-sulfonamide], the concentration for half-maximal inhibition (IC50) under setting [1] lay in the range of 1000 to 5000 nM.

`CC(C)(O)c1coc(S(=O)(=O)NC(=O)Nc2c(CC3CCCC3)ccc3c2CCC3)c1` [Compound 28, N-((5-(cyclopentylmethyl)-2,3-dihydro-1H-inden-4-yl)carbamoyl)-4-(2-hydroxypropan-2-yl)furan-2-sulfonamide] returned a half-inhibitory concentration (IC50) under setting [1] of 500 to 1000 nM.

`[2H]c1cc([C@@H](C)C2CC2)c(NC(=O)NS(=O)(=O)c2cc(C(C)(C)O)co2)c2c1CCC2` [Compound 30, (S)-N-((5-(1-cyclopropylethyl)-2,3-dihydro-1H-inden-4-yl-7-d)carbamoyl)-4-(2-hydroxypropan-2-yl)furan-2-sulfonamide] came in with an IC50 under setting [1] of 1000 to 5000 nM.

In turn, `CC(C)(O)c1coc(S(=O)(=O)NC(=O)Nc2c(CC3CCC3)ccc3c2CC3)c1` [Compound 33, N-((3-(cyclobutylmethyl)bicyclo[4.2.0]octa-1(6),2,4-trien-2-yl)carbamoyl)-4-(2-hydroxypropan-2-yl)furan-2-sulfonamide] came in with a 50% inhibitory concentration (IC50) under setting [1] of 100 to 500 nM.

`C[C@H](c1ccc2c(c1NC(=O)NS(=O)(=O)c1cc(C(C)(C)O)co1)CC2)C1CC1` [Compound 35, (S)-N-((3-(1-cyclopropylethyl)bicyclo[4.2.0]octa-1(6),2,4-trien-2-yl)carbamoyl)-4-(2-hydroxypropan-2-yl)furan-2-sulfonamide] came in with an IC50 under setting [1] of 1000 to 5000 nM.

Under setting [1], `C[C@@H](c1ccc2c(c1NC(=O)NS(=O)(=O)c1cc(C(C)(C)O)co1)CC2)C1CC1` [Compound 37, (R)-N-((3-(1-cyclopropylethyl)bicyclo[4.2.0]octa-1(6),2,4-trien-2-yl)carbamoyl)-4-(2-hydroxypropan-2-yl)furan-2-sulfonamide] registered an IC50 of 100 to 500 nM.

`C=C(c1c(C)cc2c(c1NC(=O)NS(=O)(=O)c1cc(C(C)(C)O)co1)CCC2)C1CC1` [Compound 40, N-((5-(1-cyclopropylvinyl)-6-methyl-2,3-dihydro-1H-inden-4-yl)carbamoyl)-4-(2-hydroxypropan-2-yl)furan-2-sulfonamide] gave a concentration for half-maximal inhibition (IC50) under setting [1] of 1000 to 5000 nM.

As to `C[C@@H](c1cc(C#N)c2c(c1NC(=O)NS(=O)(=O)c1cc(C(C)(C)O)co1)CCC2)C1CC1` [Compound 45, (R)-N-((7-cyano-5-(1-cyclopropylethyl)-2,3-dihydro-1H-inden-4-yl)carbamoyl)-4-(2-hydroxypropan-2-yl)furan-2-sulfonamide], the IC50 under setting [1] fell in the range of 100 to 500 nM.

Under setting [1], `C[C@H](c1cc(C#N)c2c(c1NC(=O)NS(=O)(=O)c1cc(C(C)(C)O)co1)CCC2)C1CC1` [Compound 47, (S)-N-((7-cyano-5-(1-cyclopropylethyl)-2,3-dihydro-1H-inden-4-yl)carbamoyl)-4-(2-hydroxypropan-2-yl)furan-2-sulfonamide] showed an IC50 of 500 to 1000 nM.

As to `C[C@H](c1ccc2c(c1NC(=O)N[S@@](=N)(=O)c1cc(C(C)(C)O)cs1)CCC2)C1CC1` [Compound 54-1], under setting [1], the IC50 lay in the range of 1000 to 5000 nM.

Under setting [1], `C[C@H](c1ccc2c(c1NC(=O)N[S@](=N)(=O)c1cc(C(C)(C)O)cs1)CCC2)C1CC1` [Compound 54-2] yielded an IC50 of 100 to 500 nM.

Compound `C[C@@H](c1ccc2c(c1NC(=O)N[S@@](=N)(=O)c1cc(C(C)(C)O)cs1)CCC2)C1CC1` [Compound 55-1] had an IC50 under setting [1] of 100 to 500 nM.

With `C[C@H](c1ccc2c(c1NC(=O)NS(=O)(=O)c1ccc(C(C)(C)O)s1)CCC2)C1CC1` [Compound 57, (S)-N-((5-(1-cyclopropylethyl)-2,3-dihydro-1H-inden-4-yl)carbamoyl)-5-(2-hydroxypropan-2-yl)thiophene-2-sulfonamide], the IC50 under setting [1] lay within 1000 to 5000 nM.

For the compound `C[C@@H](c1ccc2c(c1NC(=O)NS(=O)(=O)c1ccc(C(C)(C)O)s1)CCC2)C1CC1` [Compound 58, (R)-N-((5-(1-cyclopropylethyl)-2,3-dihydro-1H-inden-4-yl)carbamoyl)-5-(2-hydroxypropan-2-yl)thiophene-2-sulfonamide], the IC50 under setting [1] lay within 1000 to 5000 nM.

Turning to `C[C@@H](c1ccc2c(c1NC(=O)NS(=O)(=O)c1cc(C3(O)CC3)co1)CCC2)C1CC1` [Compound 59, (R)-N-((5-(1-cyclopropylethyl)-2,3-dihydro-1H-inden-4-yl)carbamoyl)-4-(1-hydroxycyclopropyl)furan-2-sulfonamide], the IC50 under setting [1] lay within 500 to 1000 nM.

For `C[C@H](c1ccc2c(c1NC(=O)NS(=O)(=O)c1cc(C3(O)CC3)co1)CCC2)C1CC1` [Compound 60, (S)-N-((5-(1-cyclopropylethyl)-2,3-dihydro-1H-inden-4-yl)carbamoyl)-4-(1-hydroxycyclopropyl)furan-2-sulfonamide], under setting [1], the 50% inhibitory concentration (IC50) was 100 to 500 nM.

As for `O=C(Nc1c(CC2CCC2)ccc2c1CCC2)NS(=O)(=O)c1cc(C2(O)CC2)co1` [Compound 61, N-((5-(cyclobutylmethyl)-2,3-dihydro-1H-inden-4-yl)carbamoyl)-4-(1-hydroxycyclopropyl)furan-2-sulfonamide], under setting [1], the 50% inhibitory concentration (IC50) was 1000 to 5000 nM.

For `C[C@@H](c1ccc2c(c1NC(=O)NS(=O)(=O)c1sc(C(C)(C)O)cc1C#N)CCC2)C1CC1` [Compound 62, (R)-3-cyano-N-((5-(1-cyclopropylethyl)-2,3-dihydro-1H-inden-4-yl)carbamoyl)-5-(2-hydroxypropan-2-yl)thiophene-2-sulfonamide], under setting [1], the IC50 was at most 100 nM.

By IC50 is commonly meant the concentration at which inhibition is half-maximal.

The values are drawn from patent US11976054B2, “Amide derivative and preparation method therefore and use thereof in medicine” (Chengdu Baiyu Pharmaceutical Co., Ltd., priority 2019, dated 2024).
